Measured values as given in EP4692094A1 (Beijing Konruns Pharmaceutical Co., Ltd., priority 2023, dated 2024).

Columns and labels:
Type in all cases: in vitro ADME
[1] = target: T1, CYP1A2 (Homo sapiens, UniProt P05177); experiment: Inhibitory effect on P450 enzymes in vitro (human liver microsomes), CYP1A2; conditions: probe phenacetin, final concentration 10 µM, substrate phenacetin, read-out: % inhibition rate CYP1A2 (phenacetin)
T1 construct: from tissue; host or cells: human liver microsomes
T1 sequence (P05177 1-516): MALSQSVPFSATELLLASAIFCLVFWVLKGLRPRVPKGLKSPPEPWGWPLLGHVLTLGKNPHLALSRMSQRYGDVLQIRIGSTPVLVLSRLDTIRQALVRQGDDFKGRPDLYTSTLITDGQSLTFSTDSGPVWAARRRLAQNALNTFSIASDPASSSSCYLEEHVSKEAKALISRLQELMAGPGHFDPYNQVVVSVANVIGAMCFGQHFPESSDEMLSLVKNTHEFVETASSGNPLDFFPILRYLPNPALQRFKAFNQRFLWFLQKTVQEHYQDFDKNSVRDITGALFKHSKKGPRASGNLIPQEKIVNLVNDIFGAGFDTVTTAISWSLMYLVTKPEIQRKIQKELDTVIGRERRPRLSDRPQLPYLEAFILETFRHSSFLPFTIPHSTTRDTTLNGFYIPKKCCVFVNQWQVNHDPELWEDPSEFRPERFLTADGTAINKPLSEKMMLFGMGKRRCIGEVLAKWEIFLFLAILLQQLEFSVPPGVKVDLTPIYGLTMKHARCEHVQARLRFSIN
Experimental: 1.1 Preparation of compounds: The compounds prepared in the examples were each dissolved in dimethylsulfoxide to give solutions at a concentration of 2 mmol/L.
1.2 Test methods: • 1) Incubation system: human liver microsomes, a MgCl2 solution, a phosphate buffer solution, and a substrate solution were each added a 96-well deep-well plate and mixed homogenously. In the final incubation system, the concentration of the human liver microsomes was 0.2 mg/mL, and the final concentrations of the MgCl2 solution and the phosphate buffer solution were 5 mM and 100 mM, respectively. • 2) 1 µL of the substrate solution was added to the incubation system, and the final concentrations of CYP1A2 phenacetin, 2C8 paclitaxel […], 2C19 mephenytoin, 2D6 midazolam, and 3A midazolam substrates were 40 µM (phenacetin), 5 µM (paclitaxel), 50 µM (mephenytoin), 10 µM (mephenytoin), 5 µM (midazolam), and 50 µM […], respectively. • 3) 1 µL of the example compound or vehicle (DMSO) was added to the incubation system, and the incubation system was pre-warmed for 5 min in a 37 °C water bath before starting the reaction with 20 µL of 10 mM NADPH solution.
1.3 Sample treatment: Within the designated time (20 min for phenacetin, 10 min for paclitaxel, 20 min for mephenytoin, 20 min for dextromethorphan, 5 min for midazolam, and 10 min for testosterone), 400 µL of methanol containing the internal standard was added to terminate the reaction, and the mixture was vortexed and mixed homogeneously. Then, the deep-well plate was centrifuged at 3220 g and 4 °C for 40 min. 100 µL of the supernatant was transferred into a new plate, and 150 µL of purified water was added. The mixture was mixed homogenously for LC-MS/MS analysis. Table 11. Inhibitory effects of some compounds in the examples on CYP enzymes

[2] = Assay for plasma protein binding rate (equilibrium dialysis), dog plasma; conditions: dialysis 6 h at 37 °C, read-out: Dog (Fu%)
Experimental: (§1) 1.1 Preparation of compounds: The compounds prepared in the examples were each dissolved in dimethylsulfoxide to give solutions at a concentration of 10 mmol/L. • 1) The example compounds were each diluted from 10 mmol/L stock solution to 0.2 mmol/L, i.e., 1 µL of the compound was added to 49 µL of DMSO; • 2) 3 µL of 0.2 mmol/L test compounds were added to 597 µL of blood plasma, and the mixtures were vortexed at 1000 rpm for 2 min; • 3) 50 µL of the plasma containing the drug in 2) was taken, 50 µL of PBS was added, and 300 µL of methanol internal standard* was added to serve as a sample T0; • 4) 120 µL of the plasma containing the drug in 2) was taken and added to one side of an HTD device membrane, and 120 µL of PBS was added to the other side of the membrane; a breathable film was covered, and the plasma and the residual sample in 2) were balanced at 37 °C (100 rpm and 5% CO2) for 6 h; • 5) 50 µL of the dialyzed plasma side sample was taken, 50 µL of PBS was added, and 300 µL of methanol internal standard* was added to serve as a sample P; • 6) 50 µL of the dialyzed PBS side sample was taken, 50 µL of blank plasma was added, and 300 µL of methanol internal standard* was added to serve as a sample B; • 7) 50 µL of the plasma containing the drug in 2) was taken, 50 µL of PBS was added, and 300 µL of methanol internal standard* was added to serve as a sample T6; • 8) All samples were vortexed, mixed homogeneously, and then centrifuged at 3220 g for 40 min at 4 °C; • 9) 100 µL of the supernatant and 100 µL of purified water were mixed homogenously for liquid chromatography-mass spectrometry.
(§2) An internal standard method was used, and the plasma protein binding rate, recovery rate, and residual percentage were calculated by using Excel according to the ratio of the peak area of the sample to the peak area of the internal standard. Free rate(%) = (RatioB)/(RatioP) × 100% [formula] Binding rate(%) = 100%−Free rate% [formula] Recovery rate(%) = (RatioB + RatioP)/(RatioT0) × 100% [formula] Remaining percentage(%) = (RatioT6)/(RatioT0) × 100% [formula]
(§3) RatioB: a ratio of the peak area of the test substance on the PBS side to the peak area of the internal standard; RatioP: a ratio of the peak area of the test substance on the plasma side to the peak area of the internal standard; RatioT6: a ratio of the peak area of the sample after incubation with the test substance for 6 h to the peak area of the internal standard; RatioT0: a ratio of the peak area of the sample after incubation with the test substance for 0 h to the peak area of the internal standard. Table 8. Plasma protein binding rate (Fu%) data for various species of example compounds

[3] = Assay for plasma protein binding rate (equilibrium dialysis), mouse plasma; conditions: dialysis 6 h at 37 °C, read-out: Mouse (Fu%)
Experimental: as §1, §2, §3

| SMILES | inhibition at 20 min, 10 µM [1] | fraction unbound at 6 h, 1 µM [2] | fraction unbound at 6 h, 1 µM [3] |
| --- | --- | --- | --- |
| COc1ccc2ccoc2c1S(=O)(=O)Nc1noc2cc(Cn3cccn3)nc(OC)c12 [Example 10, N-(6-((1H-Pyrazol-1-yl)methyl)-4-methoxyisoxazolo[4,5-c]pyridin-3-yl)-6-methoxybenzofuran-7-sulfonamide] | -1.78% | 0.0145 | 0.0512 |
| COc1cc2c(cc1S(=O)(=O)Nc1noc3cc(Cn4cccn4)nc(OC)c13)CCCO2 [Example 76, N-(6-((1H-Pyrazol-1-yl)methyl)-4-methoxyisoxazolo[4,5-c]pyridin-3-yl)-7-methoxy-3,4-dihydro-1H-benzopyran-6-sulfonamide] | – | 0.0065 | 0.0072 |
| COc1cc2c(cc1S(=O)(=O)Nc1noc3cc(Cn4cccn4)nc(OC)c13)CCCC2 [Example 2, N-(6-((1H-Pyrazol-1-yl)methyl)-4-methoxyisoxazolo[4,5-c]pyridin-3-yl)-3-methoxy-5,6,7,8-tetrahydronaphthalene-2-sulfonamide] | 6.02% | 0.0013 | 0.0065 |
| COc1cc2c(cc1S(=O)(=O)Nc1noc3cc(Cn4cccn4)nc(OC)c13)OCC2 [Example 59, N-(6-((1H-Pyrazol-1-yl)methyl)-4-methoxyisoxazolo[4,5-c]pyridin-3-yl)-5-methoxy-2,3-dihydrobenzofuran-6-sulfonamide] | 1.93% | 0.0143 | 0.05 |
| COc1ccc2c(c1S(=O)(=O)Nc1noc3cc(Cn4cccn4)nc(OC)c13)OCC2 [Example 9, N-(6-((1H-Pyrazol-1-yl)methyl)-4-methoxyisoxazolo[4,5-c]pyridin-3-yl)-6-methoxy-2,3-dihydrobenzofuran-7-sulfonamide] | – | 0.025 | 0.0478 |
